Legend:
[1] = target: Casein kinase I isoform delta (Homo sapiens, UniProt P48730); assay: Selectivity interaction (KinomeScan (DiscoverX)) EUB0000045b CSNK1D
[2] = target: Calcium/calmodulin-dependent protein kinase type 1 (Homo sapiens) (UniProt Q14012); assay: Selectivity interaction (Adapta Assay) EUB0001632a CAMK1; conditions: at 10 µM
[3] = target: Cannabinoid receptor 2 (Homo sapiens) (UniProt P34972); assay: Selectivity interaction (Panel of non-epigenetic targets (kinases, GPCRs, ion channels, and transporters, Eurofins) ) EUB0000271b CNR2; conditions: at 1 µM
[4] = target: T1, cAMP-dependent protein kinase catalytic subunit PRKX (Homo sapiens) (UniProt P51817); assay: Selectivity interaction (KinomeScan (DiscoverX)) EUB0001619a PRKX; conditions: at 1 µM
T1 sequence (whole entry): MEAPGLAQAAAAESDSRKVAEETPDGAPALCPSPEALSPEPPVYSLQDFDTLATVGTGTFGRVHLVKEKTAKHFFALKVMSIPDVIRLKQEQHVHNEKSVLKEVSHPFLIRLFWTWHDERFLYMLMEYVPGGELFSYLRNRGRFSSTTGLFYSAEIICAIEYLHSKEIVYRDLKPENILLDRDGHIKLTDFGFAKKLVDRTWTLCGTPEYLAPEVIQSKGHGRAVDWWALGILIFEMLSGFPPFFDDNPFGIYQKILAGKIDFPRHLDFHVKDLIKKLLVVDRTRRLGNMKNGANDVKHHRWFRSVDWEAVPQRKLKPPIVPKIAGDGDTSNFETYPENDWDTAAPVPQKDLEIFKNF

[5] = target: Serine/threonine-protein kinase 33 (Homo sapiens) (UniProt Q9BYT3); assay: Selectivity interaction (KinomeScan (DiscoverX)) EUB0000607a STK33; conditions: at 10 µM
[6] = target: Serine/threonine-protein kinase N1 (Homo sapiens, UniProt Q16512); assay: Selectivity interaction (ActivX KiNativ screen (kinase selectivity in THP-1 cell lysates)) EUB0000639a PKN1; format: subcellular; conditions: lysate, at 0.04 µM
[7] = target: T2, Mitogen-activated protein kinase kinase kinase 5 (Homo sapiens) (UniProt Q99683); assay: Selectivity interaction (Kinase panel (Invitrogen)) EUB0000639a MAP3K5; conditions: at 200 nM
T2 sequence (whole entry): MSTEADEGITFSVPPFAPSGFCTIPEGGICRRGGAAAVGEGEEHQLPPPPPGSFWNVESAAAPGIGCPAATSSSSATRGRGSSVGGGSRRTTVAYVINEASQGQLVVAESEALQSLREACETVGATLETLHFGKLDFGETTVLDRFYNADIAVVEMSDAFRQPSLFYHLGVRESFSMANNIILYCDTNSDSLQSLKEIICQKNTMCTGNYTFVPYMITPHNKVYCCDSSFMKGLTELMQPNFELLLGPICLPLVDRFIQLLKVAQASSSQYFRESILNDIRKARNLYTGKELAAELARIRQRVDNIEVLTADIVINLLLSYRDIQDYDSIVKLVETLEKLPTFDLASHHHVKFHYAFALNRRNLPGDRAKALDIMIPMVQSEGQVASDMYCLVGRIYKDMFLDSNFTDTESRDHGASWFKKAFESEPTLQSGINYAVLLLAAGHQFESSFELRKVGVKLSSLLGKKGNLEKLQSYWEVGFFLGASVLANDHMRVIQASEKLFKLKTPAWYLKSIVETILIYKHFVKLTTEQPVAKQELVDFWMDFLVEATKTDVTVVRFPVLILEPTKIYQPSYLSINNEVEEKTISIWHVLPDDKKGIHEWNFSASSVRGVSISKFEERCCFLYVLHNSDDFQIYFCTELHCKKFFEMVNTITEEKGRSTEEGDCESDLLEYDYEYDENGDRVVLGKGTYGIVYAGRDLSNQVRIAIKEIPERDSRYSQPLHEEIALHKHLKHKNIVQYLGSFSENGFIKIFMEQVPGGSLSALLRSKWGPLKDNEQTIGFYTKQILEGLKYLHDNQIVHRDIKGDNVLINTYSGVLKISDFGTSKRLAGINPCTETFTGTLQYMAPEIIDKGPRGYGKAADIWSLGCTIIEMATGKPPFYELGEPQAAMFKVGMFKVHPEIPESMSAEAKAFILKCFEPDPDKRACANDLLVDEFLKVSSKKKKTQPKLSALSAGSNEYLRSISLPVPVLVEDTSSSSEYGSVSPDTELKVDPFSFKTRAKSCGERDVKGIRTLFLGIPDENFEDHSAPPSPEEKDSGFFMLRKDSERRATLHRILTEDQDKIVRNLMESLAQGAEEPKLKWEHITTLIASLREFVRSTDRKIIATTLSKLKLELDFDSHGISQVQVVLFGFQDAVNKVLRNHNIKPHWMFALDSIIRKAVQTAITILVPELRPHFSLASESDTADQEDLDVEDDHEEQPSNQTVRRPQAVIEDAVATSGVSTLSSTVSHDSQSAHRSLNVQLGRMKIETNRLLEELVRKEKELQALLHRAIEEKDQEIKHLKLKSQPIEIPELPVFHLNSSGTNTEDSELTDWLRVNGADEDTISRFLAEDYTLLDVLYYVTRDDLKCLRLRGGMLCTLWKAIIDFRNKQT

[8] = target: 5'-AMP-activated protein kinase catalytic subunit alpha-1 (Homo sapiens, UniProt Q13131); assay: Selectivity interaction (ActivX KiNativ screen (kinase selectivity in THP-1 cell lysates)) EUB0000639a PRKAA1; format: subcellular; conditions: lysate, at 1 µM
5'-AMP-activated protein kinase catalytic subunit alpha-1, sequence (Q13131 whole entry, looked up): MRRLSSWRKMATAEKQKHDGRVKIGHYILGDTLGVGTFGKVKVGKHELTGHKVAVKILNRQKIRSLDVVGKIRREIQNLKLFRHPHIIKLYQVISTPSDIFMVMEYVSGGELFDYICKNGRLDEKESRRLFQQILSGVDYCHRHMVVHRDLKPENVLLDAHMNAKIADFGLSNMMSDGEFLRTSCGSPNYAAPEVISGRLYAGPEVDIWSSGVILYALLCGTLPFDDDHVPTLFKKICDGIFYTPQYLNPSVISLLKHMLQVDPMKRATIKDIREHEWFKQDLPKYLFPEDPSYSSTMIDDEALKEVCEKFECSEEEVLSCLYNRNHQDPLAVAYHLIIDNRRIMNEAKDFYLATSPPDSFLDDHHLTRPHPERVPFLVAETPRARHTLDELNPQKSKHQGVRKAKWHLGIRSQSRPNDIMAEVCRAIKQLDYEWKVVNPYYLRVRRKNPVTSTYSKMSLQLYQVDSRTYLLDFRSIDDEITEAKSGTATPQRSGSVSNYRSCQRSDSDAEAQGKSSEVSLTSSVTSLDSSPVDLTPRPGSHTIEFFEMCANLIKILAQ

Casein kinase I isoform delta, sequence (P48730 whole entry, looked up, canonical isoform): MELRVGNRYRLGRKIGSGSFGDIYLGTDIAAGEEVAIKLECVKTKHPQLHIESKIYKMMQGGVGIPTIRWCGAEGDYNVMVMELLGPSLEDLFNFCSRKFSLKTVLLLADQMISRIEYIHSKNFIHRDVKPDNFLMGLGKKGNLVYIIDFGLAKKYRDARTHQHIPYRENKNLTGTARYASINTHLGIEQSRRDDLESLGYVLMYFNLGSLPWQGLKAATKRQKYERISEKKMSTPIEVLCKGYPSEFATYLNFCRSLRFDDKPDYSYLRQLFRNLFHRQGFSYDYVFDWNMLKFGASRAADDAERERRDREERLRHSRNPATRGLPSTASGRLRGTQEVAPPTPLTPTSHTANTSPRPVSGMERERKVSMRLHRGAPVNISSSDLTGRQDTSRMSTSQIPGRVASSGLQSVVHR
Calcium/calmodulin-dependent protein kinase type 1 (Homo sapiens), sequence (Q14012 whole entry, looked up): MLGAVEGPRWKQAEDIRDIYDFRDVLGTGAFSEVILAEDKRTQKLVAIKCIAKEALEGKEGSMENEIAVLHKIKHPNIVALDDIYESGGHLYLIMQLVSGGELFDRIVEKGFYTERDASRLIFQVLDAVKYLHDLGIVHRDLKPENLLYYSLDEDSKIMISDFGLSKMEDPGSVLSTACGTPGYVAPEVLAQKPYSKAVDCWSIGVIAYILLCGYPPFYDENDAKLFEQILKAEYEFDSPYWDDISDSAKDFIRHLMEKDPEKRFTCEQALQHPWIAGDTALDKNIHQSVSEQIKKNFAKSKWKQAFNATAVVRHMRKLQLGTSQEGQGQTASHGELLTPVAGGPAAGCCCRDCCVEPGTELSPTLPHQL
Serine/threonine-protein kinase 33 (Homo sapiens), sequence (Q9BYT3 whole entry, looked up): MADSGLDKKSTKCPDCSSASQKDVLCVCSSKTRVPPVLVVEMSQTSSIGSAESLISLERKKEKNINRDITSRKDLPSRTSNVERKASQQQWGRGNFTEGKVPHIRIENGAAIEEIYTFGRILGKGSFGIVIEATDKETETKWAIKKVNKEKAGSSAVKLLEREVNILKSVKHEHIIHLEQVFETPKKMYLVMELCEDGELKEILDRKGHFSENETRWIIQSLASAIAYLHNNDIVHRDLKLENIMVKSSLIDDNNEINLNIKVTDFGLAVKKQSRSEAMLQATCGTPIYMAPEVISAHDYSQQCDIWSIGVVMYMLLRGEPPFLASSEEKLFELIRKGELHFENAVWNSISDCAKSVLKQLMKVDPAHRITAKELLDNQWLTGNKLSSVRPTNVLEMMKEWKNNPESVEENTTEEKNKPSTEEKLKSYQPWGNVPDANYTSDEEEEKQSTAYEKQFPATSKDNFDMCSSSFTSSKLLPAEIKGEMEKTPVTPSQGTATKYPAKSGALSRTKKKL
Cannabinoid receptor 2 (Homo sapiens), sequence (P34972 whole entry): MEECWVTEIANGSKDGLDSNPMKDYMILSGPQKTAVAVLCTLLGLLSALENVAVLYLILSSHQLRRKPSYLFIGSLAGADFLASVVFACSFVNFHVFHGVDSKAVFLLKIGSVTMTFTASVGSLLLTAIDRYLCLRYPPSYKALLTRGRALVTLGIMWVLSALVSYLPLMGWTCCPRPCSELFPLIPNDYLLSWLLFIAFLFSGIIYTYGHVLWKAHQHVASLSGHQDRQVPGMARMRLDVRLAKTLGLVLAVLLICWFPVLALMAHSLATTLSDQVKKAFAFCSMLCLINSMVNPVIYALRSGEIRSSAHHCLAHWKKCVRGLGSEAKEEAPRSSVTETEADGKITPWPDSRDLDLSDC
Serine/threonine-protein kinase N1, sequence (Q16512 2-942 limits assumed): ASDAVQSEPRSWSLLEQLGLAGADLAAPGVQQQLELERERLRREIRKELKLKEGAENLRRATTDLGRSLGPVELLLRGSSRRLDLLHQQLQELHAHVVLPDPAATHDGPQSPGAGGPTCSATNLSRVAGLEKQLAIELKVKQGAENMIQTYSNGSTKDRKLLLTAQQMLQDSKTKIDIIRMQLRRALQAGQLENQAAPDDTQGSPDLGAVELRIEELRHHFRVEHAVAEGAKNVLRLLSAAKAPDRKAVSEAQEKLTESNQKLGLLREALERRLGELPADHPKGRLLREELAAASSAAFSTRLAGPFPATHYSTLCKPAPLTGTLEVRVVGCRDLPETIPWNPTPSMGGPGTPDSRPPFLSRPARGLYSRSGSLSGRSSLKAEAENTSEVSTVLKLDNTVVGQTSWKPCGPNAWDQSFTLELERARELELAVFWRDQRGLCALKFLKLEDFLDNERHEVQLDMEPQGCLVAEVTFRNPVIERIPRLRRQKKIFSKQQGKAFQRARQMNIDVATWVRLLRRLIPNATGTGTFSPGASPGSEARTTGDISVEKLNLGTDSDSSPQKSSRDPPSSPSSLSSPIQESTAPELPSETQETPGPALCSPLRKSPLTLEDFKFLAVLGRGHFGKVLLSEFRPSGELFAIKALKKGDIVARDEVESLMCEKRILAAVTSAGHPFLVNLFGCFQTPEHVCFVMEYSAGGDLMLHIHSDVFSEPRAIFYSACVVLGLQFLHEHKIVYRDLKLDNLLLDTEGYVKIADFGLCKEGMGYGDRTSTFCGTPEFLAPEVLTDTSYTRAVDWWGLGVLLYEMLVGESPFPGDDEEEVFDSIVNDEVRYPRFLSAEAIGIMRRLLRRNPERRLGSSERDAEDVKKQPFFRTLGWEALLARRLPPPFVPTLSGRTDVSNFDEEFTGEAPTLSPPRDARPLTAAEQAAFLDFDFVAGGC

`C=CC(=O)Nc1cc(-n2c(=O)ccc3cnc4ccc(-c5ccc(NS(C)(=O)=O)cc5)cc4c32)ccc1C` gave a % of control ([1]; at 1 µM) of 84% and a % of control ([1]; at 10 µM) of 90%.

With `Cn1cc(-n2cnc3c(NCc4nc5cc(Cl)c(Cl)cc5[nH]4)nc(N4CCOCC4)nc32)cn1` the % of inhibition [2] was 18.6%.

With `Cc1cc(C)cc([C@@H]2c3cc(C)ccc3NC(=O)CN2C(=O)c2ccc(Br)s2)c1` the % of inhibition [3] was -19%.

`N#Cc1cccc(-c2c[nH]c3ncnc(N4CCOCC4)c23)c1` was tested, and the % of control [4] was 100%.

With `CNC(=O)Nc1ccc(-c2nc(N3CC4CCC(C3)O4)c3cnn(C4CCC5(CC4)OCCO5)c3n2)cc1` the % of control [5] was 82%.

`CC[C@@H]1[C@H](F)C(=O)N[C@@H]1COc1nccc2cc(C(N)=O)c(OC)cc12` [ZIMLOVISERTIB] gave a % of inhibition [6] of -5.1%, a % of inhibition [7] of -8.62% and a % of inhibition [8] of 5.9%.
